Where two headings read alike, the source gives them in different places.
Tests used:
[1] = tested on: human primary hepatocytes; experiment: Metabolite identification in human hepatocyte relay assay
Description: Briefly, cryopreserved human primary hepatocytes were thawed and cultured as described above.

[2] = tested on: TA98, TA100, TA102, TA1535, TA1537
Method: Safety studies were performed by commercial services using their standard protocols. […] Genotoxicity was investigated using the Ames test (Bacterial Reverse Mutation Assay) (Covance Laboratories Ltd, North Yorkshire, England). In vitro mammalian cell micronucleus screening assay was studied in human peripheral blood lymphocytes (BioReliance Corporation, Rockville, USA). Cardiotoxicity was determined against the hERG channel in an automated patch clamp assay using the Qpatch or against the hNaV 1.5, hKV 1.5 and hCaV 1.2 using a manual patch-clamp technique (Metrion Biosciences, Cambridge, UK). Cytotoxicity in human and rat primary hepatocytes was assessed using the CellTiter-Blue assay performed by commercial services (KaLy-Cell). The viability of HepG2 cells was monitored through the addition of 1 mM resazurin. Following 6 h incubation, the relative amount of reduced resazurin was detected in a fluorimeter and compared to the assay controls (vehicle: 0.1% DMSO and positive control: 10 µM puromycin).

## C[C@@H](CNC(=O)[C@H](O)C(C)(C)CO)NC(=O)c1cc(F)c(F)cc1F [MMV693183]
[1]
  In vitro (MS response): 85%
[2]; TA98, +S-9, 5 ug/plate
  Fold Increase: 1.1
  Mean (Revertant Numbers Per Plate): 36.3
[2]; TA98, +S-9, 16 ug/plate
  Fold Increase: 1.1
  Mean (Revertant Numbers Per Plate): 37
[2]; TA98, +S-9, 50 ug/plate
  Fold Increase: 1.2
  Mean (Revertant Numbers Per Plate): 39.7
[2]; TA98, +S-9, 160 ug/plate
  Fold Increase: 1.1
  Mean (Revertant Numbers Per Plate): 36.7
[2]; TA98, +S-9, 500 ug/plate
  Fold Increase: 1.3
  Mean (Revertant Numbers Per Plate): 42.3
[2]; TA98, +S-9, 1600 ug/plate
  Fold Increase: 1
  Mean (Revertant Numbers Per Plate): 32.3
[2]; TA98, +S-9, 5000 ug/plate
  Fold Increase: 0.8
  Mean (Revertant Numbers Per Plate): 26.3
[2]; TA98, -S-9, 5 ug/plate
  Fold Increase: 0.8
  Mean (Revertant Numbers Per Plate): 22.3
[2]; TA98, -S-9, 16 ug/plate
  Fold Increase: 1.1
  Mean (Revertant Numbers Per Plate): 29.7
[2]; TA98, -S-9, 50 ug/plate
  Fold Increase: 0.9
  Mean (Revertant Numbers Per Plate): 26.3
[2]; TA98, -S-9, 160 ug/plate
  Fold Increase: 0.8
  Mean (Revertant Numbers Per Plate): 23.7
[2]; TA98, -S-9, 500 ug/plate
  Fold Increase: 0.7
  Mean (Revertant Numbers Per Plate): 20.3
[2]; TA98, -S-9, 1600 ug/plate
  Fold Increase: 0.8
  Mean (Revertant Numbers Per Plate): 22.7
[2]; TA98, -S-9, 5000 ug/plate
  Fold Increase: 1
  Mean (Revertant Numbers Per Plate): 26.7
[2]; TA98, TA100
  difference in revertant numbers vs control: < 2 fold
[2]; TA100, +S-9, 5 ug/plate
  Fold Increase: 0.9
  Mean (Revertant Numbers Per Plate): 107.3
[2]; TA100, +S-9, 16 ug/plate
  Fold Increase: 1
  Mean (Revertant Numbers Per Plate): 122.7
[2]; TA100, +S-9, 50 ug/plate
  Fold Increase: 1.1
  Mean (Revertant Numbers Per Plate): 128.3
[2]; TA100, +S-9, 160 ug/plate
  Fold Increase: 1
  Mean (Revertant Numbers Per Plate): 114.7
[2]; TA100, +S-9, 500 ug/plate
  Fold Increase: 1.1
  Mean (Revertant Numbers Per Plate): 135
[2]; TA100, +S-9, 1600 ug/plate
  Fold Increase: 0.9
  Mean (Revertant Numbers Per Plate): 104
[2]; TA100, +S-9, 5000 ug/plate
  Fold Increase: 1
  Mean (Revertant Numbers Per Plate): 115.7
[2]; TA100, -S-9, 5 ug/plate
  Fold Increase: 1.1
  Mean (Revertant Numbers Per Plate): 99.3
[2]; TA100, -S-9, 16 ug/plate
  Fold Increase: 1.1
  Mean (Revertant Numbers Per Plate): 94
[2]; TA100, -S-9, 50 ug/plate
  Fold Increase: 1.2
  Mean (Revertant Numbers Per Plate): 108.3
[2]; TA100, -S-9, 160 ug/plate
  Fold Increase: 1
  Mean (Revertant Numbers Per Plate): 86.3
[2]; TA100, -S-9, 500 ug/plate
  Fold Increase: 1.1
  Mean (Revertant Numbers Per Plate): 93
[2]; TA100, -S-9, 1600 ug/plate
  Fold Increase: 1.2
  Mean (Revertant Numbers Per Plate): 102
[2]; TA100, -S-9, 5000 ug/plate
  Fold Increase: 1.1
  Mean (Revertant Numbers Per Plate): 93
[2]; TA102
  difference in revertant numbers vs control: < 1.5 fold
[2]; TA102, +S-9, 5 ug/plate
  Fold Increase: 1.3
  Mean (Revertant Numbers Per Plate): 285
[2]; TA102, +S-9, 16 ug/plate
  Fold Increase: 1.3
  Mean (Revertant Numbers Per Plate): 295.7
[2]; TA102, +S-9, 50 ug/plate
  Fold Increase: 1.3
  Mean (Revertant Numbers Per Plate): 295
[2]; TA102, +S-9, 160 ug/plate
  Fold Increase: 1.3
  Mean (Revertant Numbers Per Plate): 298.7
[2]; TA102, +S-9, 500 ug/plate
  Fold Increase: 1.3
  Mean (Revertant Numbers Per Plate): 283
[2]; TA102, +S-9, 1600 ug/plate
  Fold Increase: 1.1
  Mean (Revertant Numbers Per Plate): 257
[2]; TA102, +S-9, 5000 ug/plate
  Fold Increase: 0.8
  Mean (Revertant Numbers Per Plate): 184.3
[2]; TA102, -S-9, 5 ug/plate
  Fold Increase: 1
  Mean (Revertant Numbers Per Plate): 245.7
[2]; TA102, -S-9, 16 ug/plate
  Fold Increase: 1.1
  Mean (Revertant Numbers Per Plate): 251.3
[2]; TA102, -S-9, 50 ug/plate
  Fold Increase: 1.1
  Mean (Revertant Numbers Per Plate): 256.3
[2]; TA102, -S-9, 160 ug/plate
  Fold Increase: 1
  Mean (Revertant Numbers Per Plate): 240
[2]; TA102, -S-9, 500 ug/plate
  Fold Increase: 0.9
  Mean (Revertant Numbers Per Plate): 202.7
[2]; TA102, -S-9, 1600 ug/plate
  Fold Increase: 0.8
  Mean (Revertant Numbers Per Plate): 181.7
[2]; TA102, -S-9, 5000 ug/plate
  Fold Increase: 0.1
  Mean (Revertant Numbers Per Plate): 26.7
[2]; TA1535, +S-9, 5 ug/plate
  Fold Increase: 0.9
  Mean (Revertant Numbers Per Plate): 20.7
[2]; TA1535, +S-9, 16 ug/plate
  Fold Increase: 0.8
  Mean (Revertant Numbers Per Plate): 19.3
[2]; TA1535, +S-9, 50 ug/plate
  Fold Increase: 1
  Mean (Revertant Numbers Per Plate): 23.3
[2]; TA1535, +S-9, 160 ug/plate
  Fold Increase: 1.1
  Mean (Revertant Numbers Per Plate): 25
[2]; TA1535, +S-9, 500 ug/plate
  Fold Increase: 0.8
  Mean (Revertant Numbers Per Plate): 17.7
[2]; TA1535, +S-9, 1600 ug/plate
  Fold Increase: 1
  Mean (Revertant Numbers Per Plate): 24
[2]; TA1535, +S-9, 5000 ug/plate
  Fold Increase: 1
  Mean (Revertant Numbers Per Plate): 22.7
[2]; TA1535, -S-9, 5 ug/plate
  Fold Increase: 1.4
  Mean (Revertant Numbers Per Plate): 35
[2]; TA1535, -S-9, 16 ug/plate
  Fold Increase: 0.8
  Mean (Revertant Numbers Per Plate): 20.7
[2]; TA1535, -S-9, 50 ug/plate
  Fold Increase: 0.9
  Mean (Revertant Numbers Per Plate): 22
[2]; TA1535, -S-9, 160 ug/plate
  Fold Increase: 0.9
  Mean (Revertant Numbers Per Plate): 24
[2]; TA1535, -S-9, 500 ug/plate
  Fold Increase: 1.2
  Mean (Revertant Numbers Per Plate): 29.3
[2]; TA1535, -S-9, 1600 ug/plate
  Fold Increase: 1
  Mean (Revertant Numbers Per Plate): 26
[2]; TA1535, -S-9, 5000 ug/plate
  Fold Increase: 0.9
  Mean (Revertant Numbers Per Plate): 22
[2]; TA1535, TA1537
  difference in revertant numbers vs control: < 3 fold
[2]; TA1537, +S-9, 5 ug/plate
  Fold Increase: 1.4
  Mean (Revertant Numbers Per Plate): 10
[2]; TA1537, +S-9, 16 ug/plate
  Fold Increase: 1.1
  Mean (Revertant Numbers Per Plate): 7.7
[2]; TA1537, +S-9, 50 ug/plate
  Fold Increase: 1.9
  Mean (Revertant Numbers Per Plate): 13.3
[2]; TA1537, +S-9, 160 ug/plate
  Fold Increase: 1
  Mean (Revertant Numbers Per Plate): 7.3
[2]; TA1537, +S-9, 500 ug/plate
  Fold Increase: 1.6
  Mean (Revertant Numbers Per Plate): 11
[2]; TA1537, +S-9, 1600 ug/plate
  Fold Increase: 1.4
  Mean (Revertant Numbers Per Plate): 9.7
[2]; TA1537, +S-9, 5000 ug/plate
  Fold Increase: 1
  Mean (Revertant Numbers Per Plate): 7.3
[2]; TA1537, -S-9, 5 ug/plate
  Fold Increase: 1.1
  Mean (Revertant Numbers Per Plate): 7.7
[2]; TA1537, -S-9, 16 ug/plate
  Fold Increase: 0.9
  Mean (Revertant Numbers Per Plate): 6.3
[2]; TA1537, -S-9, 50 ug/plate
  Fold Increase: 1
  Mean (Revertant Numbers Per Plate): 6.7
[2]; TA1537, -S-9, 160 ug/plate
  Fold Increase: 0.8
  Mean (Revertant Numbers Per Plate): 5.3
[2]; TA1537, -S-9, 500 ug/plate
  Fold Increase: 1
  Mean (Revertant Numbers Per Plate): 7.3
[2]; TA1537, -S-9, 1600 ug/plate
  Fold Increase: 0.9
  Mean (Revertant Numbers Per Plate): 6
[2]; TA1537, -S-9, 5000 ug/plate
  Fold Increase: 0.6
  Mean (Revertant Numbers Per Plate): 4

Source: publication PMC9021288 (Nature Communications, 2022)
